Test results reported in US8933079B2, “Pyridone and pyridazinone derivatives as anti-obesity agents” (Boehringer Ingelheim International GmbH, priority 2012, dated 2015).

Molecular target: hMCH-1R (Homo sapiens (Human), UniProt Q99705)
Assay: MCH-1 receptor binding test (125I-MCH binding to hMCH-1R transfected cell membranes)
Conditions: for IC50: competition with 100 pM 125I-MCH, membranes of CHO/Galpha16 cells stably transfected with hMCH-1R
Protocol: Res Commun. […] After the incubation the reaction is filtered using a cell harvester through 0.5% PEI treated fibreglass filters (GF/B, Unifilter Packard). The membrane-bound radioactivity retained on the filter is then determined after the addition of scintillator substance (Packard Microscint 20) in a measuring device (TopCount of Packard). […] The analysis of the concentration binding curve is carried out on the assumption of one receptor binding site.

Chain of hMCH-1R (Q99705 whole entry): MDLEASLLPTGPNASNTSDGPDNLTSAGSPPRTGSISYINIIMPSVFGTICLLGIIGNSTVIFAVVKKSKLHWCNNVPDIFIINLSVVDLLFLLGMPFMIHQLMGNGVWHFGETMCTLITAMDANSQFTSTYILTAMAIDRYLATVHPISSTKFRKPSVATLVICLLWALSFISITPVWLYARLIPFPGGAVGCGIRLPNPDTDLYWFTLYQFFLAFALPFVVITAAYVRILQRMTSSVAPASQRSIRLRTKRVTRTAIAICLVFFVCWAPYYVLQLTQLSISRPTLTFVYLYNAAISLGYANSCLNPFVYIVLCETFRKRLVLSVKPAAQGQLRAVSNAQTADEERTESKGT

Compound: Cc1cc(CN2CC[C@H](O)C2)ccc1C(=O)Cn1ccc(OCc2ccc(Cl)cn2)cc1=O [Example 3.3]
- IC50: 39 nM

Compound: Cc1cc(CN2CCN(C)CC2)ccc1C(=O)Cn1ncc(OCc2ccc(Cl)cn2)cc1=O [Example 7.4]
- IC50: 67 nM

Compound: Cc1cc(CN2CCC(CO)CC2)ccc1C(=O)Cn1ncc(OCc2ccccc2)cc1=O [Example 5.11, 5-Benzyloxy-2-{2-[4-(4-hydroxymethyl-piperidin-1-ylmethyl)-2-methyl-phenyl]-2-oxo-ethyl}-2H-pyridazin-3-one]
- IC50: 13 nM

Compound: Cc1cc(CN2CCC[C@H](O)C2)ccc1C(=O)Cn1ccc(OCc2ccc(Br)cn2)cc1=O [Example 4.4, (S)-4-(5-Bromo-pyridin-2-ylmethoxy)-1-{2-[4-(3-hydroxy-piperidin-1-ylmethyl)-2-methyl-phenyl]-2-oxo-ethyl}-1H-pyridin-2-one]
- IC50: 18 nM

Compound: CNC(C)c1ccc(C(=O)Cn2ncc(OCc3ccc(OC)cn3)cc2=O)c(C)c1 (stereo not drawn) [Example 10.2, 5-(5-Methoxy-pyridin-2-ylmethoxy)-2-{2-[2-methyl-4-(1-methylamino-ethyl)-phenyl]-2-oxo-ethyl}-2H-pyridazin-3-one]
- IC50: 22 nM

Compound: CNCc1ccc(C(=O)Cn2ccc(OCc3ccccc3)cc2=O)c(C)c1 [Example 1.2, 4-Benzyloxy-1-[2-(2-methyl-4-methylaminomethyl-phenyl)-2-oxo-ethyl]-1H-pyridin-2-one]
- IC50: 19 nM

Compound: Cc1cc(CN2CCC(C)(O)C2)ccc1C(=O)Cn1ncc(OCc2ccc(Br)cn2)cc1=O (stereo not drawn) [Example 8.5]
- IC50: 18 nM

Compound: Cc1cc(CN2CCC[C@H]2CO)ccc1C(=O)Cn1ncc(OCc2ccc(Cl)cn2)cc1=O [Example 7.1, (S)-5-(5-Chloro-pyridin-2-ylmethoxy)-2-{2-[4-(2-hydroxymethyl-pyrrolidin-1-ylmethyl)-2-methyl-phenyl]-2-oxo-ethyl}-2H-pyridazin-3-one]
- IC50: 26 nM

Compound: Cc1cc(CN2CCC(O)CC2)ccc1C(=O)Cn1ccc(OCc2ccc(F)cn2)cc1=O [Example 2.3]
- IC50: 93 nM

Compound: Cc1cc(CN2CCC[C@H]2CO)ccc1C(=O)Cn1ccc(OCc2ccc(Cl)cn2)cc1=O [Example 3.2, 4-(5-Chloro-pyridin-2-ylmethoxy)-1-{2-[4-((S)-2-hydroxymethyl-pyrrolidin-1-ylmethyl)-2-methyl-phenyl]-2-oxo-ethyl}-1H-pyridin-2-one]
- IC50: 36 nM

Compound: Cc1cc(CN2CCN(C)CC2)ccc1C(=O)Cn1ccc(OCc2ccc(Cl)cn2)cc1=O [Example 3.5]
- IC50: 84 nM

Compound: Cc1cc(CN2CCCC2)ccc1C(=O)Cn1ccc(OCc2ccc(Br)cn2)cc1=O [Example 4.8, 4-(5-Bromo-pyridin-2-ylmethoxy)-1-[2-(2-methyl-4-pyrrolidin-1-ylmethyl-phenyl)-2-oxo-ethyl]-1H-pyridin-2-one]
- IC50: 17 nM

Compound: Cc1cc(CN2CCCC[C@@H]2CO)ccc1C(=O)Cn1ccc(OCc2ccc(Br)cn2)cc1=O [Example 4.7, (R)-4-(5-Bromo-pyridin-2-ylmethoxy)-1-{2-[4-(2-hydroxymethyl-piperidin-1-ylmethyl)-2-methyl-phenyl]-2-oxo-ethyl}-1H-pyridin-2-one]
- IC50: 14 nM

Compound: CNCc1ccc(C(=O)Cn2ncc(OCc3ccc(Br)cn3)cc2=O)c(C)c1 [Example 8.10, 5-(5-Bromo-pyridin-2-ylmethoxy)-2-[2-(2-methyl-4-methylaminomethyl-phenyl)-2-oxo-ethyl]-2H-pyridazin-3-one]
- IC50: 25 nM

Compound: Cc1cc(CN2CCC(O)CC2)ccc1C(=O)Cn1ccc(OCc2ccc(Cl)cn2)cc1=O [Example 3.7]
- IC50: 36 nM

Compound: Cc1cc(CN2CCCCC2)ccc1C(=O)Cn1ccc(OCc2ccc(F)cn2)cc1=O [Example 2.2]
- IC50: 116 nM

Compound: Cc1cc(CN2CC(O)C2)ccc1C(=O)Cn1ncc(OCc2ccc(Br)cn2)cc1=O [Example 8.2, 5-(5-Bromo-pyridin-2-ylmethoxy)-2-{2-[4-(3-hydroxy-azetidin-1-ylmethyl)-2-methyl-phenyl]-2-oxo-ethyl}-2H-pyridazin-3-one]
- IC50: 19 nM

Compound: Cc1cc(CN2CCC[C@@H](O)C2)ccc1C(=O)Cn1ncc(OCc2ccc(Cl)cn2)cc1=O [Example 7.11]
- IC50: 31 nM

Compound: CCN1CCN(Cc2ccc(C(=O)Cn3ccc(OCc4ccc(Cl)cn4)cc3=O)c(C)c2)CC1 [Example 3.1, 4-(5-Chloro-pyridin-2-ylmethoxy)-1-{2-[4-(4-ethyl-piperazin-1-ylmethyl)-2-methyl-phenyl]-2-oxo-ethyl}-1H-pyridin-2-one]
- IC50: 79 nM

Compound: Cc1cc(CN2CCCCC2)ccc1C(=O)Cn1ccc(OCc2ccccc2)cc1=O [Example 1.9]
- IC50: 11 nM

Compound: Cc1cc(CN2CCC(O)CC2)ccc1C(=O)Cn1ncc(OCc2ccc(F)cn2)cc1=O [Example 6.4]
- IC50: 58 nM

Compound: CNCc1ccc(C(=O)Cn2ccc(OCc3ccc(Br)cn3)cc2=O)c(C)c1 [Example 4.13, 4-(5-Bromo-pyridin-2-ylmethoxy)-1-[2-(2-methyl-4-methylaminomethyl-phenyl)-2-oxo-ethyl]-1H-pyridin-2-one]
- IC50: 26 nM

Compound: COc1ccc(COc2cnn(CC(=O)c3ccc(CN4CCC(O)CC4)cc3C)c(=O)c2)nc1 [Example 9.2, 2-{2-[4-(4-Hydroxy-piperidin-1-ylmethyl)-2-methyl-phenyl]-2-oxo-ethyl}-5-(5-methoxy-pyridin-2-ylmethoxy)-2H-pyridazin-3-one]
- IC50: 34 nM

Compound: Cc1cc(CN2CCCC2)ccc1C(=O)Cn1ccc(OCc2ccccc2)cc1=O [Example 1.7, 4-Benzyloxy-1-[2-(2-methyl-4-pyrrolidin-1-ylmethyl-phenyl)-2-oxo-ethyl]-1H-pyridin-2-one]
- IC50: 11 nM

Compound: Cc1cc(CN2CCC(O)CC2)ccc1C(=O)Cn1ncc(OCc2ccc(Cl)cn2)cc1=O [Example 7.14, 5-(5-Chloro-pyridin-2-ylmethoxy)-2-{2-[4-(4-hydroxy-piperidin-1-ylmethyl)-2-methyl-phenyl]-2-oxo-ethyl}-2H-pyridazin-3-one]
- IC50: 30 nM

Compound: CCN(CC)Cc1ccc(C(=O)Cn2ccc(OCc3ccc(Br)cn3)cc2=O)c(C)c1 [Example 4.20, 4-(5-Bromo-pyridin-2-ylmethoxy)-1-[2-(4-diethylaminomethyl-2-methyl-phenyl)-2-oxo-ethyl]-1H-pyridin-2-one]
- IC50: 19 nM

Compound: Cc1cc(CN2CCC(O)CC2)ccc1C(=O)Cn1ccc(OCc2ccccc2)cc1=O [Example 1.3, 4-Benzyloxy-1-{2-[4-(4-hydroxy-piperidin-1-ylmethyl)-2-methyl-phenyl]-2-oxo-ethyl}-1H-pyridin-2-one]
- IC50: 19 nM

Compound: Cc1cc(CN2CC[C@H](O)C2)ccc1C(=O)Cn1ncc(OCc2ccc(Cl)cn2)cc1=O [Example 7.12]
- IC50: 30 nM

Compound: COc1ccc(COc2ccn(CC(=O)c3ccc(CN4CCCC4)cc3C)c(=O)c2)nc1 [Example 11.3]
- IC50: 26 nM

Compound: Cc1cc(CN2CCCC[C@@H]2CO)ccc1C(=O)Cn1ccc(OCc2ccc(Cl)cn2)cc1=O [Example 3.14]
- IC50: 37 nM

Compound: Cc1cc(CN2CCC(CO)CC2)ccc1C(=O)Cn1ncc(OCc2ccc(Cl)cn2)cc1=O [Example 7.8]
- IC50: 26 nM

Compound: Cc1cc(CN2CCC2)ccc1C(=O)Cn1ccc(OCc2ccc(Br)cn2)cc1=O [Example 4.21, 1-[2-(4-Azetidin-1-ylmethyl-2-methyl-phenyl)-2-oxo-ethyl]-4-(5-bromo-pyridin-2-ylmethoxy)-1H-pyridin-2-one]
- IC50: 18 nM

Compound: CSCC[C@@H]1NC(=O)[C@@H](NC(=O)[C@H](CCCNC(=N)N)NC(=O)[C@H](CC(C)C)NC(=O)[C@H](CCSC)NC(=O)[C@H](CC(=O)O)NC(=O)[C@H](Cc2ccccc2)NC(=O)[C@@H](N)CC(=O)O)CSSC[C@@H](C(=O)N[C@@H](Cc2c[nH]c3ccccc23)C(=O)N[C@@H](CCC(N)=O)C(=O)N[C@H](C(=O)O)C(C)C)NC(=O)[C@@H]2CCCN2C(=O)[C@H](CCCNC(=N)N)NC(=O)[C@H](Cc2ccc(O)c(I)c2)NC(=O)[C@H](C(C)C)NC(=O)[C@H](CCCNC(=N)N)NC(=O)CNC(=O)[C@H](CC(C)C)NC1=O [^125I-MCH, reference compound]
- Kd (125I-MCH on hMCH-1R membranes, read-out: KD value of the radioligand): 0.156 nM

Compound: Cc1cc(CN2CCOC(C)C2)ccc1C(=O)Cn1ncc(OCc2ccccc2)cc1=O (stereo not drawn) [Example 5.9, 5-Benzyloxy-2-{2-[2-methyl-4-(2-methyl-morpholin-4-ylmethyl)-phenyl]-2-oxo-ethyl}-2H-pyridazin-3-one]
- IC50: 30 nM

Compound: Cc1cc(CN2CCCCC2)ccc1C(=O)Cn1ccc(OCc2ccc(Cl)cn2)cc1=O [Example 3.6]
- IC50: 26 nM

Compound: Cc1cc(CN2CCC[C@@H](O)C2)ccc1C(=O)Cn1ccc(OCc2ccccc2)cc1=O [Example 1.15, (R)-4-Benzyloxy-1-{2-[4-(3-hydroxy-piperidin-1-ylmethyl)-2-methyl-phenyl]-2-oxo-ethyl}-1H-pyridin-2-one]
- IC50: 31 nM

Compound: Cc1cc(CN2CCN(C)CC2)ccc1C(=O)Cn1ccc(OCc2ccccc2)cc1=O [Example 1.5, 4-Benzyloxy-1-{2-[2-methyl-4-(4-methyl-piperazin-1-ylmethyl)-phenyl]-2-oxo-ethyl}-1H-pyridin-2-one]
- IC50: 48 nM

Compound: CCNCc1ccc(C(=O)Cn2ncc(OCc3ccc(Cl)cn3)cc2=O)c(C)c1 [Example 7.7, 5-(5-Chloro-pyridin-2-ylmethoxy)-2-[2-(4-ethylaminomethyl-2-methyl-phenyl)-2-oxo-ethyl]-2H-pyridazin-3-one]
- IC50: 18 nM

Compound: CCNCc1ccc(C(=O)Cn2ccc(OCc3ccc(Cl)cn3)cc2=O)c(C)c1 [Example 3.11, 4-(5-Chloro-pyridin-2-ylmethoxy)-1-[2-(4-ethylaminomethyl-2-methyl-phenyl)-2-oxo-ethyl]-1H-pyridin-2-one]
- IC50: 26 nM

Compound: Cc1cc(CN2CC[C@H](O)C2)ccc1C(=O)Cn1ncc(OCc2ccc(F)cn2)cc1=O [Example 6.6]
- IC50: 49 nM

Compound: Cc1cc(CN2CC3CC(C2)C3O)ccc1C(=O)Cn1ccc(OCc2ccccc2)cc1=O (stereo not drawn) [Example 1.18]
- IC50: 16 nM

Compound: Cc1cc(CN2CC[C@H](O)C2)ccc1C(=O)Cn1ccc(OCc2ccccc2)cc1=O [Example 1.11, (S)-4-Benzyloxy-1-{2-[4-(3-hydroxy-pyrrolidin-1-ylmethyl)-2-methyl-phenyl]-2-oxo-ethyl}-1H-pyridin-2-one]
- IC50: 30 nM
